Measured values published in US20150203474A1, “SOLID FORMS COMPRISING INHIBITORS OF HCV NS5A, COMPOSITIONS THEREOF, AND USES THEREWITH” (PRESIDIO PHARMACEUTICALS ,INC., priority 2012, published 2015).
Where two headings read alike, the source gives them in different places.

Legend:
[1] = PK study of Form A of Compound I in dogs; format: in vivo; conditions: PO dose of 75 mg/kg
Description: The pharmacokinetics (PK) properties of Form A of Compound I and Form I of Compound II were determined in a series of comprehensive experiments in preclinical species including Sprague-Dawley rats, beagle dogs, cynomolgus monkeys. In those studies, the Form A crystalline salt of Compound I (and Form I crystalline salt of Compound II) was formulated in saline, 0.5% MC in saline or other commonly used suitable formulation vehicles to give a clear solution or as a suspension or a paste depending on the concentration intended to reach and the choice of vehicles. Dosing was by oral gavage. Blood samples were drawn and placed into individual tube containing K2EDTA. Blood samples were put on ice and centrifuged (2000 g for 5 minutes at 4° C.) to obtain plasma within 15 minutes after collection. Plasma samples were stored at approximately −80° C. freezer until analysis. For most of these analyses, Compound I (and Compound II) and the internal standard (IS) were extracted from rat, monkey or dog plasma by protein precipitation, and the extract was evaporated, reconstituted and analyzed using HPLC with tandem mass spectrometric detection (HPLC-MS/MS), see examples for further details. Calibration was accomplished by weighted linear regression of the ratio of the peak area of analyte to that of the added internal standard (IS). For the validated assay in rat and monkey EDTA plasma, the Lower Limit of Quantitation (LLOQ) for both compound 1 and 2 was 5.00 ng/mL, and the assay was linear from 5.00-1,000 ng/mL. PK parameters were calculated by non-compartmental analysis using WinNonlin (versions 4.1 through 6.1). Non-naïve Beagle Dog, 8.0-9.5 kg were used in the study. The dosing solution was prepared by dissolving 1.90 g of Form A of Compound I (1.67 g free base equivalent) in 222.237 mL of 0.5% MC and vortexed for 20 min, sonicated for 2 min to obtain a colorless clear solution. The animals were restrained manually, and approx. 0.6-1 mL blood/time point was collected from cephalic or saphenous veins into pre-cooled EDTA tubes. Blood samples were put on ice and centrifuged at 4° C. to obtain plasma within 30 minutes of sample collection. […] 5 μL of the supernatant was injected for LC-MS/MS analysis. • For dilution samples: • An aliquot of 10 μL plasma sample was added with 90 μL blank Beagle dog plasma. The dilution factor was 10. An aliquot of 30 μL dilution plasma was added with 200 μL IS in ACN (testosterone as IS, 100.0 ng/mL), the mixture was vortexed for 2 min and centrifuged at 12000 rpm for 5 min. 5 μL of the supernatant was injected for LC-MS/MS analysis.

[2] = Stressing of Form A at ~40° C./~75% RH; format: physicochemical
Description: Form A samples were stressed at ˜40° C./˜75% relative humidity (RH) for 25-27 days. The samples were added to glass vials and then placed uncapped in jars containing saturated salt solutions. The jars were sealed and placed in an oven. […] XRPD patterns for this sample were collected with a PANalytical X'Pert PRO MPD diffractometer using an incident beam of Cu Kα radiation produced using a long, fine-focus source and a nickel filter. The diffractometer was configured using the symmetric Bragg-Brentano. Prior to the analysis, a silicon specimen (NIST SRM 640d) was analyzed to verify the Si 111 peak position. A specimen of the sample was packing into a nickel-coated copper well. Antiscatter slits (SS) were used to minimize the background generated by air. Soller slits for the incident and diffracted beams were used to minimize broadening from axial divergence. Diffraction patterns were collected using a scanning position-sensitive detector (X'Celerator) located 240 mm from the sample and Data Collector software v. 2.2b. […] TG′analysis was performed using a TA Instruments Q5000 IR and 2950 thermogravimetric analyzers. Temperature calibration was performed using nickel and Alumel™. Each sample was placed in an aluminum pan. Samples ran on TA Instruments 2950 were left uncapped and samples ran on Q5000 was hermetically sealed, the lid pierced, then inserted into the TG furnace. The furnace was heated under nitrogen. The sample was heated from 0° C. to 350° C., at 10° C./min.

[3] = Moisture sorption profile (DVS) of Compound II Form I and amorphous Compound II; format: physicochemical; conditions: DVS at 25° C.
Description: The moisture sorption profile was generated of the sample as well as of a sample of amorphous Compound II at 25° C. using a DVS Moisture Balance Flow System (Model Advantage) with the following conditions: sample size approximately 10 mg, drying 25° C. for 60 minutes, adsorption range 0% to 95% RH, desorption range 95% to 0% RH, and step interval 5%. The equilibrium criterion was <0.01% weight change in 5 minutes for a maximum of 120 minutes.

[4] = beagle, dog, plasma, po, 75 mg/kg, Dog #1, read-out: plasma concentration
[5] = beagle, dog, plasma, po, 75 mg/kg, Dog #2, read-out: plasma concentration
[6] = beagle, dog, plasma, po, 75 mg/kg, Mean, read-out: mean plasma concentration

Structure (SMILES): COC(=O)N[C@H](C(=O)N1CCC[C@H]1c1ncc(-c2ccc3cc(-c4ccc5nc([C@@H]6CCCN6C(=O)[C@@H](NC(=O)OC)C(C)C)[nH]c5c4)ccc3c2)[nH]1)C(C)C [Form A of Compound I]
- plasma concentration ([1]; Beagle Dog, 0.083 hr, Dog #1): BQL
- concentration at 0.083 hr ([1]; beagle, dog, plasma, po, 75 mg/kg, 0.083 hr, Dog #2, read-out: plasma concentration): 5.92 ng/mL
- concentration at 0.083 hr ([1]; beagle, dog, plasma, po, 75 mg/kg, 0.083 hr, Mean, read-out: mean plasma concentration): 5.92 ng/mL
- concentration at 0.25 h [1, 4]: 267 ng/mL
- concentration at 0.25 h [1, 5]: 374 ng/mL
- concentration at 0.25 h [1, 6]: 320 ng/mL
- concentration at 0.5 h ([1]; beagle, dog, plasma, po, 75 mg/kg, 0.5 hr, Dog #1): 1090 ng/mL
- concentration at 0.5 hr ([1]; beagle, dog, plasma, po, 75 mg/kg, 0.5 hr, Dog #2, read-out: plasma concentration): 952 ng/mL
- concentration at 0.5 hr ([1]; beagle, dog, plasma, po, 75 mg/kg, 0.5 hr, Mean, read-out: mean plasma concentration): 1020 ng/mL
- concentration at 1 hr [1, 4]: 1590 ng/mL
- concentration at 1 hr [1, 5]: 2050 ng/mL
- concentration at 1 hr [1, 6]: 1820 ng/mL
- concentration at 2 hr [1, 4]: 2980 ng/mL
- concentration at 2 hr [1, 5]: 2400 ng/mL
- concentration at 2 hr [1, 6]: 2690 ng/mL
- concentration at 4 hr [1, 4]: 3080 ng/mL
- concentration at 4 hr [1, 5]: 1540 ng/mL
- concentration at 4 hr [1, 6]: 2310 ng/mL
- concentration at 6 hr [1, 4]: 3590 ng/mL
- concentration at 6 hr [1, 5]: 1320 ng/mL
- concentration at 6 hr [1, 6]: 2450 ng/mL
- concentration at 8 hr [1, 4]: 3500 ng/mL
- concentration at 8 hr [1, 5]: 1040 ng/mL
- concentration at 8 hr [1, 6]: 2270 ng/mL
- concentration at 24 hr [1, 4]: 244 ng/mL
- concentration at 24 hr [1, 5]: 2160 ng/mL
- concentration at 24 hr [1, 6]: 1200 ng/mL
- Hygroscopicity (in words) ([2]; stressed ~40° C./~75% RH 27 days vs unstressed material): hygroscopic at high RH
- Thermogravimetric weight loss after stressing ([2]; ~40° C./~75% RH, after 27 days, from 25-225° C., equivalent to 5 moles of water): ~10%
- Solid form by XRPD after stressing ([2]; ~40° C./~75% relative humidity, uncapped, after 25 days): remained Form A

Structure (SMILES): CC[C@H](C)[C@H](NC(=O)OC)C(=O)N1CCC[C@H]1c1nc2ccc(-c3ccc4cc(-c5cnc([C@@H]6CCCN6C(=O)[C@@H](NC(=O)OC)[C@@H](C)OC)[nH]5)ccc4c3)cc2[nH]1 [Form I of Compound II]
- Hygroscopicity (in words) ([3]; 0-75% RH): medium hygroscopic
- Water absorption at high RH (in words) ([3]; ~85% RH and above): absorbed water very quickly
- weight percentage change (water uptake) from 0-75% RH ([3]; listed as Compound II Form I): 4.34%
